Among the data in publication PMC5216130, “Saturated palmitic acid induces myocardial inflammatory injuries through direct binding to TLR4 accessory protein MD2” (Nature Communications, 2017) are Kd values, retold here.

By Kd is commonly meant the constant that tells how readily two partners part at equilibrium.

For experiment [1], the target named is T1, MD2 (myeloid differentiation protein 2; rhMD2) (Homo sapiens, UniProt Q9Y6Y9).
T1 construct: gene LY96; recombinant human MD2 (rhMD2)
T1 sequence (Q9Y6Y9 19-160): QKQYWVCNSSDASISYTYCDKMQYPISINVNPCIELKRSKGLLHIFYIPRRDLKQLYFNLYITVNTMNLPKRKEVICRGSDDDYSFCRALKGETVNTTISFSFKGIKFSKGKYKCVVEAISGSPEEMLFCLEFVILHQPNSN
Nature of the experiment: SPR (ProteOn XPR36); confirmed on ForteBio Octet HTX (KD=[…]) and by biotin-PA ELISA. It counts as binding. On the technique in general: In BLI a coated tip is dipped into the sample, and binding shifts an interference pattern.

The target in experiment [2] is T1, MD2 (myeloid differentiation protein 2; rhMD2). Nature of the experiment: ForteBio Octet HTX (called SPR in the paper). It counts as binding.

For the compound `CCCCCCCCCCCCCCCC(=O)O` [PA, palmitic acid], in experiment [1], the affinity, expressed as Kd, was 31.6 µM.
Consider `CCCCC/C=C\C/C=C\CCCCCCCC(=O)O` [linoleic acid], for which the Kd in experiment [2] worked out at 54 µM.
`CCCCCCCC/C=C\CCCCCCCC(=O)O` [oleic acid]: in experiment [2] (read-out: Kd), the Kd amounted to 35 µM.
